Reference: patent publication US7087623B2, “Thiazole and other heterocyclic ligands for mammalian dopamine, muscarinic and serotonin receptors and transporters, and methods of use thereof” (Sepracor Inc., priority 2001, dated 2006)
Read-outs that look alike come from different tables or passages of the source.

Experiments:
ICR male or female mice = test: Acute toxicity evaluation in mice, intravenous; assay type: in vivo, mouse; details: intravenous doses of 5 and 10 mg/kg, deaths recorded at 3, 24, 48 and 72 hours
Procedure: Compound 20 was formulated in 5% dextrose in water (w/v)/PEG 400 (4:1 v/v) to a maximum concentration of 8 mg/mL. The solution was passed through a 0.8/0.2 micron filter before administration.
ICR male or female mice weighing 20–22 g were maintained in a hygienic environment under controlled temperature (22–24° C.) and humidity (60–80%) with 12-hour light/dark cycles for at least one week. Free access to standard lab chow for mice and tap water was granted.
Three mice/dose (5 and 10 mg/kg) were intravenously administered test compound. Animal deaths were recorded at 3, 24, 48 and 72 hours after treatment.

[1] = target: T1, human serotonin 5-HT2A receptor (Homo sapiens, UniProt P28223); test: Radioligand binding assay, human 5-HT2A receptors ([3H]Ketanserin); details: human 5-HT2a, Example 16 table
T1 construct: expressed in transfected cells; host or cells: CHO-K1
T1 sequence (P28223 whole entry): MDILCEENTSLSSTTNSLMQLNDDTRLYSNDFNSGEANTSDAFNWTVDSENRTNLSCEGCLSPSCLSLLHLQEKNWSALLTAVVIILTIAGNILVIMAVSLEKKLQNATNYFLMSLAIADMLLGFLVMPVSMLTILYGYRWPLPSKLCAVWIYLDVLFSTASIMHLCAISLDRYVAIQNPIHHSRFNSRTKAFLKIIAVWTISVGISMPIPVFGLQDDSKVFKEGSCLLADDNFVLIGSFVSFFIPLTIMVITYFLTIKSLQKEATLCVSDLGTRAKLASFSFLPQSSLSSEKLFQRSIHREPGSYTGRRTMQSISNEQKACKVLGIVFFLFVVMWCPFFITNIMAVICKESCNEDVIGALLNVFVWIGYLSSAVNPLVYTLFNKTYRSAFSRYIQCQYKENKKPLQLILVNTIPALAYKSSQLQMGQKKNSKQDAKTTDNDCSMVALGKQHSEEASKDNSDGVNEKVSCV
Procedure: (§1) The human 5-HT2a and 5-HT2b screens were conducted according to Bonhaus, D. W. et al. Br. J. Pharmacol. 1995, 115, 622. The human 5-HT2c screen was conducted according to Wolf, W. A. et al. J. Neurochem. 1997, 69, 1449. The human 5-HT6 screen was conducted according to Monsma, F. J. et al. Mol. Pharmacol. 1993, 43, 320.
CHO-K1 cells stably transfected with a plasmid encoding the human serotonin 5-HT2A receptor were used to prepare membranes in modified Tris-HCl pH 7.7 buffer using standard techniques. […] Non-specific binding was estimated in the presence of 1 μM mianserin. […] See Bonhaus, D. W. et al. “The pharmacology and distribution of human 5-hydroxytryptamine2B (5-HT2B) receptor gene products: comparison with 5-HT2A and 5-HT2C receptors” Brit. J. Pharmacol. 115: 622–628, 1995; and Saucier, C and Albert, P. R. “Identification of an endogenous 5-hydroxytryptamine2A receptor in NIH-3T3 cells: agonist-induced down-regulation involves decreases in receptor RNA and number” J. Neurochem. 68: 1998–2011, 1997.
(§2) The human 5-HT2a and 5-HT2b screens were conducted according to Bonhaus, D. W. et al. Br. J. Pharmacol. 1995, 115, 622. The human […], W. A. et al. J. Neurochem. 1997, 69, 1449. The human 5-HT6 screen was conducted according to Monsama, F. J. et al. Mol. Pharmacol. 1993, 43, 320. The assay to human D3 receptors was conducted according to Sokoloff, P. et al. Nature 1990, 347;146. The human dopamine transporter assay was conducted according to Gu, H. et. al. J. Biol. Chem. 1994, 269 (10);7124; and Giros, B. et al. Trends. Pharmacol. Sci. 1993, 14: 43. The human muscarinic M1–M4 screens were conducted according to Buckley N. J. et al. Mol. Pharmacol. 1989, 35:469.

[2] = target: T2, human serotonin 5-HT2B receptor (Homo sapiens, UniProt P41595); test: Radioligand binding assay, human 5-HT2B receptors ([3H]LSD)
T2 construct: expressed in transfected cells; host or cells: CHO-K1
T2 sequence (P41595 whole entry): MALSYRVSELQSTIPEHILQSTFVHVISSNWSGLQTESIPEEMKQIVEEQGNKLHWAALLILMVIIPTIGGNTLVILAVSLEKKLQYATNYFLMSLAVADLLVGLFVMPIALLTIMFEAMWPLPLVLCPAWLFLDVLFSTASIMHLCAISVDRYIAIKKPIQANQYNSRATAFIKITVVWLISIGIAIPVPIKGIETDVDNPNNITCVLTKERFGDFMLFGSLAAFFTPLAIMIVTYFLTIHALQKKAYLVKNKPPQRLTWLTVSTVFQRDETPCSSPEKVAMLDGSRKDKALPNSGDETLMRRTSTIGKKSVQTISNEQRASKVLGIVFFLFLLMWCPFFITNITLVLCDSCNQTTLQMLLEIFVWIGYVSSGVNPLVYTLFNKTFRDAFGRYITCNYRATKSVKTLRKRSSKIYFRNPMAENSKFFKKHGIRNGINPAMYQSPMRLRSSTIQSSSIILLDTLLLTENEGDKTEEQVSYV
Procedure: This assay measures binding of [^3H]LSD to human serotonin 5-HT2B receptors. CHO-K1 cells stably transfected with a plasmid encoding the human serotonin 5-HT2B receptor were used to prepare membranes in modified Tris-HCl pH 7.4 buffer using standard techniques. […] Non-specific binding was estimated in the presence of 10 μM serotonin. Membranes were filtered and washed 3 times and the filters were counted to determine [^3H]LSD specifically bound. See Bonhaus, D. W. et al. “The pharmacology and distribution of human 5-hydroxytryptamine2B (5-HT2B) receptor gene products: comparison with 5-HT2A and 5-HT2C receptors” Brit.
The human 5-HT2b screen was conducted according to Wolf, W. A. et al. J. Neurochem.

[3] = target: T3, human serotonin 5-HT2C receptor (Homo sapiens, UniProt P28335); test: Radioligand binding assay, human 5-HT2C receptors ([3H]Mesulergine); details: human 5-HT2c, Example 16 table
T3 construct: expressed in transfected cells; host or cells: CHO-K1
T3 sequence (P28335 33-458): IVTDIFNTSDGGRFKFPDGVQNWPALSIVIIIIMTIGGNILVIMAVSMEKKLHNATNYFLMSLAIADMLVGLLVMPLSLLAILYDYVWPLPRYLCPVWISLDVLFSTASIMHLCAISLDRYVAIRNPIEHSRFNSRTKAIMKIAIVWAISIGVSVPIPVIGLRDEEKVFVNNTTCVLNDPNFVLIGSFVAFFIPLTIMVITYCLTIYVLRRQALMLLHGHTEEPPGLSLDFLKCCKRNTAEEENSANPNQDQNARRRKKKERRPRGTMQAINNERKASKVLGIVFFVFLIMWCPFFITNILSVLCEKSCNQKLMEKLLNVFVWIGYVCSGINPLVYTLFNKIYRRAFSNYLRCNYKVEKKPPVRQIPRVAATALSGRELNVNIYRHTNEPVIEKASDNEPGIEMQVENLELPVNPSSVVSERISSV
Procedure: as §1
CHO-K1 cells stably transfected with a plasmid encoding the human serotonin 5-HT2C receptor were used to prepare membranes in modified Tris-HCl pH 7.7 buffer using standard techniques. […] Non-specific binding was estimated in the presence of 1 μM mianserin. […] See Wolf, W. A. and Schutz, J. S. “The serotonin 5-HT2C receptor is a prominent serotonin receptor in basal ganglia: evidence from functional studies on serotonin-mediated phosphoinositide hydrolysis” J. Neurochem. 69: 1449–1458, 1997.
as §2

[4] = target: T4, human serotonin 5-HT6 receptor (Homo sapiens, UniProt P50406); test: Radioligand binding assay, human 5-HT6 receptors ([3H]LSD); details: Example 16 table
T4 construct: expressed in transfected cells; host or cells: HeLa/E6-7
T4 sequence (P50406 whole entry): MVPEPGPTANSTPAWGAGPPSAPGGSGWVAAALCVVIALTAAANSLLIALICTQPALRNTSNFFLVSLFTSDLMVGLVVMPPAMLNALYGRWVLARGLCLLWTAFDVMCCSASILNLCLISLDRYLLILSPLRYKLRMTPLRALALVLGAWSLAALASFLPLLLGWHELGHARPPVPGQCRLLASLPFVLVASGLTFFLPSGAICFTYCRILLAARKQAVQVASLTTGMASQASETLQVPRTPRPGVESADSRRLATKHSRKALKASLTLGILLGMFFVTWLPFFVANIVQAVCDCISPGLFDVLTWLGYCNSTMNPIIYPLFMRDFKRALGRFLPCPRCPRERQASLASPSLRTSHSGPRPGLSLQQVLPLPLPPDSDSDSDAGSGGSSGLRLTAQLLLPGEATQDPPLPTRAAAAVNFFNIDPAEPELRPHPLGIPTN
Procedure: as §1
This assay measures binding of [^3H]LSD (lysergic acid diethylamide) to human serotonin 5-HT6 receptors. HeLa/E6–7 cells stably transfected with a plasmid encoding the human serotonin 5-HT6 receptor were used to prepare membranes in modified Tris-HCl pH 7.4 buffer using standard techniques. A 30 μg aliquot of membrane was incubated with 1.5 nM [^3H]LSD for 120 minutes at 37° C. Non-specific binding was estimated in the presence of 5 μM 5-HT. Membranes were filtered and washed 3 times and the filters were counted to determine [^3H]LSD specifically bound. See Monsma, Jr., F. J. et al. “Cloning and expression of a novel serotonin receptor with high affinity for tricyclic psychotropic drugs” Mol. Pharmacol. 43: 320–327, 1993.
as §2

[5] = target: T5, human dopamine D3 receptor (Homo sapiens, UniProt P35462); test: Radioligand binding assay, human dopamine D3 receptors ([3H]Spiperone); details: Example 20 table
T5 construct: expressed in transfected cells; host or cells: CHO
T5 sequence (P35462 whole entry): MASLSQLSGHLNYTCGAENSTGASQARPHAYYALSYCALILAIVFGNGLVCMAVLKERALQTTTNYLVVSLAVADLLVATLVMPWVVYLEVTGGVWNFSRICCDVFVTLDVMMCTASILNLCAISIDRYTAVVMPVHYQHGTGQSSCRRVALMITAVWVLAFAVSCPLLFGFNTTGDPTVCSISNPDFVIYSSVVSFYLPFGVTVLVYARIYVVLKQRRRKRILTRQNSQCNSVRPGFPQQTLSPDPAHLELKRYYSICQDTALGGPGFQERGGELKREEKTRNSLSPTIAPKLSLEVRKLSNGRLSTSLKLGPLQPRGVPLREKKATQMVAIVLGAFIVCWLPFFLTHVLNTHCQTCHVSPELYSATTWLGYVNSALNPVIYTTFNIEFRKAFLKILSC
Procedure: The assay for binding to human D3 receptors was conducted according to Sokoloff, P. et al. Nature 1990, 347, 146.
CHO cells stably transfected with a plasmid encoding the human dopamine D3 receptor were used to prepare membranes in modified Tris-HCl pH 7.4 buffer using standard techniques. […] Non-specific binding was estimated in the presence of 25 μM S-(−)-sulpiride. […] See Sokoloff, P. et al. “Molecular cloning and characterization of a novel dopamine receptor (D3) as a target for neuroleptics” Nature 347: 146–151, 1990.
as §2

[6] = target: T6, human dopamine transporter (Homo sapiens, UniProt Q01959); test: Binding to human dopamine transporter ([125I]RTI-55)
T6 construct: expressed in transfected cells; host or cells: CHO-K1
T6 sequence (Q01959 whole entry): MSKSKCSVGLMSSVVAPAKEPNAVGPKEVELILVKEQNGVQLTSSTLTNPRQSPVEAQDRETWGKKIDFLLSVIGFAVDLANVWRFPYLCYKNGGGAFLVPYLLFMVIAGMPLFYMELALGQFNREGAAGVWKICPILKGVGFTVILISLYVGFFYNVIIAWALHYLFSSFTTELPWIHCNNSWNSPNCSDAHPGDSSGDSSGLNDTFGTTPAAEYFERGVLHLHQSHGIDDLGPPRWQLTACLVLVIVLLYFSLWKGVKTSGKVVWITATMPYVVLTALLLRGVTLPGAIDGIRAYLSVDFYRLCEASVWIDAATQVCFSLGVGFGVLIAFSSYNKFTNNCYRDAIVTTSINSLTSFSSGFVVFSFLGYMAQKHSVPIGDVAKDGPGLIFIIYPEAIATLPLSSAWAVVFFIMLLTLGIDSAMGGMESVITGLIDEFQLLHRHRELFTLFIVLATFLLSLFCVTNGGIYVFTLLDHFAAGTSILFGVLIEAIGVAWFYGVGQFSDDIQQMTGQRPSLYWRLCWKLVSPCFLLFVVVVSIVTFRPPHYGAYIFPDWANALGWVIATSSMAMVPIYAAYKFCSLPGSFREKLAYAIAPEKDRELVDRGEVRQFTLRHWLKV
Procedure: CHO-K1 cell membranes stably transfected with a plasmid encoding the human dopamine transporter were prepared in modified Tris-HCl pH 7.4 buffer using standard techniques. […] Non-specific binding was estimated in the presence of 10 μM nomifensine. […] Trends. […]

[7] = human 5-HT2b, Example 16 table, read-out: IC50 (nM) 5-HT2b
[8] = human 5-HT6, read-out: IC50 (nM) 5-HT6
[9] = read-out: IC50 (nM) Against Human D3 Receptors
[10] = human, Example 101 table, read-out: IC50 (nM) DAT

`CCN(CC)CCCNc1nc(C2(c3ccc(Cl)cc3)CCC2)cs1.O=C(O)CC(O)(CC(=O)O)C(=O)O` [Compound 20, N′-{4-[1-(4-chlorophenyl)cyclobutyl]thiazol-2-yl}-N,N-diethylpropane-1,3-diamine citrate salt] was tested, and the Animal deaths (ICR male or female mice) was “no deaths were observed”.

In the case of `Clc1ccc(C2(c3csc(NCCN4CCOCC4)n3)CCC2)cc1` [Compound 22, {4-[1-(4-chlorophenyl)-cyclobutyl]thiazol-2-yl}-(2-morpholin-4-yl-ethyl)amine], the IC50 ([1]; read-out: IC50 (nM) 5-HT2a) is reported as > 1000 nM, the IC50 [2, 7] is reported as > 1000 nM and the IC50 ([3]; read-out: IC50 (nM) 5-HT2c) is reported as > 1000 nM. For the same molecule, the IC50 [4, 8] was > 1000 nM, the IC50 [5, 9] was > 1000 nM and the IC50 [6, 10] was > 1000 nM.

For `Clc1ccc(C2(c3csc(NCCN4CCCCC4)n3)CCC2)cc1` [Compound 23, {4-[1-(4-chlorophenyl)-cyclobutyl]thiazol-2-yl}-(2-piperidin-1-yl-ethyl)amine], the IC50 ([1]; read-out: IC50 (nM) 5-HT2a) was < 1000 nM, the IC50 [2, 7] was < 1000 nM and the IC50 ([3]; read-out: IC50 (nM) 5-HT2c) was < 100 nM. The IC50 [4, 8] was > 1000 nM, the IC50 [5, 9] was < 1000 nM and the IC50 [6, 10] was < 500 nM.

`CN1CCCC1CCNc1nc(C2(c3ccc(Cl)cc3)CCC2)cs1` (stereo not shown) [Compound 24, {4-[1-(4-chlorophenyl)-cyclobutyl]thiazol-2-yl}-[2-(1-methylpyrrolidin-2-yl)ethyl]amine] was tested, and the IC50 ([1]; read-out: IC50 (nM) 5-HT2a) was < 100 nM, the IC50 [2, 7] was < 100 nM and the IC50 ([3]; read-out: IC50 (nM) 5-HT2c) was < 10 nM. The IC50 [4, 8] was < 1000 nM, the IC50 [5, 9] was < 1000 nM and the IC50 [6, 10] was < 500 nM.

For `CCN1CCCC1CNc1nc(C2(c3ccc(Cl)cc3)CCC2)cs1` (stereo not shown) [Compound 25, {4-[1-(4-chlorophenyl)cyclobutyl]thiazol-2-yl}-(1-ethylpyrrolidin-2-ylmethyl)amine], the IC50 ([1]; read-out: IC50 (nM) 5-HT2a) was < 1000 nM, the IC50 [2, 7] was < 1000 nM and the IC50 ([3]; read-out: IC50 (nM) 5-HT2c) was < 1000 nM. For the same molecule, the IC50 [4, 8] was < 1000 nM, the IC50 [5, 9] was < 1000 nM and the IC50 [6, 10] was > 1000 nM.

In the case of `CN1CCCC1CCNc1nc(C2(c3ccc(Cl)cc3)CCC2)no1` (stereo not shown) [Compound 26, {3-[1-(4-Chlorophenyl)cyclobutyl]-[1,2,4]oxadiazol-5-yl}-[2-(1-methyl-pyrrolidin-2-yl)-ethyl]-amine], the IC50 ([1]; IC50 (nM) 5-HT2a) is reported as > 1000 nM, the IC50 [2] is reported as > 1000 nM and the IC50 ([3]; IC50 (nM) 5-HT2c) is reported as < 1000 nM. The IC50 ([4]; IC50 (nM) 5-HT6, human 5-HT6) was > 1000 nM, the IC50 ([5]; IC50 (nM) Against Human D3 Receptors) was > 1000 nM and the IC50 [6] was < 1000 nM.

In the case of `CN1CCN(c2nc(C3(c4ccc(Cl)cc4)CCC3)cs2)CC1` [Compound 27, 1-{4-[1-(4-chlorophenyl)cyclobutyl]thiazol-2-yl}-4-methylpiperazine], the IC50 ([1]; read-out: IC50 (nM) 5-HT2a) is reported as < 1000 nM, the IC50 [2, 7] is reported as < 1000 nM and the IC50 ([3]; read-out: IC50 (nM) 5-HT2c) is reported as < 1000 nM. The IC50 [4, 8] was < 1000 nM, the IC50 [5, 9] was < 1000 nM and the IC50 [6, 10] was < 500 nM.
